Assay results taken from patent US20140200825A1, “Method for predicting whether a cancer patient will not benefit from platinum-based chemotherapy agents” (Biodesix, Inc., priority 2012, published 2014).

What was measured:
Format in all cases: in vivo, human
[1] = tested on: advanced non-small cell lung cancer (NSCLC); test: LCCC0512 study, gemcitabine arm, outcome by VeriStrat group; conditions: for median PFS: NSCLC patients treated with gemcitabine alone
Method: The LCCC0512 study was a randomized phase II trial of first-line treatment with gemcitabine, erlotinib or the combination in elderly (over 70 years old) patients with advanced non-small cell lung cancer (NSCLC). Patients had stage IIIB or IV NSCLC and ECOG performance status of 0-2. Patients were randomized to receive either a maximum of 4 cycles of gemcitabine (1200 mg/m^2 days 1,8 every 21 days), 150 mg erlotinib daily, or a maximum of 4 cycles of gemcitabine (1000 mg/m^2 days 1,8 every 21 days) with concurrent 100 mg erlotinib daily. Primary endpoint was progression-free survival at 6 months. Patients randomized to receive gemcitabine monotherapy were encouraged to continue on study to receive erlotinib after progression. A total of 146 patients were enrolled. No significant differences in PFS or OS were found between treatment arms.
Pretreatment serum or plasma samples from patients in the LCCC0512 trial were available for VeriStrat testing. 124 samples were received. Sixty four samples were classified as VeriStrat Good, 39 as VeriStrat Poor and 7 as Indeterminate (undefined/equivocal classification). Of the remaining samples 13 could not be processed due to hemolysis and data could not be collected from one sample. For 5 samples where VeriStrat testing was performed, the samples could not be matched to clinical data from the trial. This left 98 samples with VeriStrat classification of Good or Poor and clinical data for statistical analysis. The majority of the samples tested were plasma, but where plasma was not available for a few patients, serum samples were used. Of the samples on which VeriStrat testing yielded a result of Good or Poor only 5 were identified as serum.
Survival analysis was carried out using SAS Enterprise Guide (SAS 9.2). Difference between groups was assessed using log-rank p values. Both univariate and multivariate hazard ratios were evaluated using Cox proportional hazard models. Kaplan-Meier plots and p values for contingency tables were generated using PRISM (GraphPad). For purposes of this disclosure, the data of interest pertain to the “gemcitabine” arm.

NSCLC = test: Subgroup of NSCLC patients treated with docetaxel, overall survival by VeriStrat group; conditions: between VeriStrat Good and VeriStrat Poor patients, FIG. 6
Description: FIG. 6 is a Kaplan-Meier plot of overall survival for a subgroup analysis of one of the cohorts studied in Taguchi et al., Mass spectrometry to classify non-small-cell lung cancer patients for clinical outcome after treatment with epidermal growth factor receptor tyrosine kinase inhibitors: a multicohort cross-institutional study.
Given our previous experience with VeriStrat separation in NSCLC and other cancers, we believe that the difference shown in FIGS. 1-4 and 7A-7B lies principally in the Poor group—i.e., that they probably benefit very little from the combination of gemcitabine+cisplatin (or possibly other combinations of chemotherapy based on a platinum agent), but can get outcomes similar to Good patients if they receive gemcitabine alone, or another non-platinum agent, for example, docetaxel. Our results in a subgroup of NSCLC patients treated with docetaxel show no difference in overall survival between VeriStrat Good and VeriStrat Poor patients (hazard ratio 1.03, p=0.95, see FIG. 6 for a Kaplan-Meier plot)

ovarian cancer = test: Ovarian cancer study, carboplatin and paclitaxel after surgery, outcome by VeriStrat group
Method: The data shown in FIGS. 7A and 7B reflect VeriStrat testing on a subset of 96 patients from a larger study of about 160 patients. In this study, serum samples were taken from ovarian cancer patients before surgery and retrospectively analyzed with the VeriStrat test. After surgery, the patients were treated with carboplatin and paclitaxel.

[2] = between VeriStrat groups, gemcitabine alone

For `Nc1ccn([C@@H]2O[C@H](CO)[C@@H](O)C2(F)F)c(=O)n1` [gemcitabine], the “median PFS” value ([1]; VeriStrat Good group) was 133 days, the “median OS” value ([1]; VeriStrat Good group, gemcitabine alone) was 201 days and the “median PFS” value ([1]; VeriStrat Poor group) was 137 days. For the same compound, the “median OS” value ([1]; VeriStrat Poor group, gemcitabine alone) was 197 days, the “hazard ratio (HR), OS by VeriStrat group” value [1, 2] was 0.82 and the “hazard ratio (HR), PFS by VeriStrat group” value [1, 2] was 1.21.

With `CC(=O)O[C@@]12CO[C@@H]1C[C@H](O)[C@@]1(C)C(=O)[C@H](O)C3=C(C)[C@@H](OC(=O)[C@H](O)[C@@H](NC(=O)OC(C)(C)C)c4ccccc4)C[C@@](O)([C@@H](OC(=O)c4ccccc4)[C@H]21)C3(C)C` [docetaxel] the “hazard ratio, overall survival” value (NSCLC) was 1.03.

In the case of carboplatin and paclitaxel, the “median disease free survival time” value (ovarian cancer; VeriStrat Good patients) is reported as 20 months, the “median overall survival time” value (ovarian cancer; VeriStrat Good patients) is reported as “undefined” and the “Hazard Ratio, disease free survival” value (ovarian cancer; VeriStrat Good vs Poor, FIG. 7A) is reported as 0.4906. The “hazard ratio, overall survival” value (ovarian cancer; VeriStrat Good vs Poor, FIG. 7B) was 0.3061, the “median disease free survival time” value (ovarian cancer; VeriStrat Poor patients) was 11 months and the “median overall survival time” value (ovarian cancer; VeriStrat Poor patients) was 21 months.
